# Like-named read-outs stand apart in the source and are kept apart here. Where a SMILES comes first, the peptide text is derived from it. [ ]: non-standard residue; d: D form. Phe(4-CF3) = N[C@@H](Cc1ccc(C(F)(F)F)cc1)C(=O)O; Bip = N[C@@H](Cc1ccc(-c2ccccc2)cc1)C(=O)O; 2Nal = N[C@@H](Cc1ccc2ccccc2c1)C(=O)O
# Key:
# [1] = tested on: Pseudomonas aeruginosa PAO1; type: cell-based
# Experimental: The bacterial strains used in the study are Bacillus subtilis 168, methicillin-resistant Staphylococcus aureus USA300 LAC (Gram-positive), Escherichia coli K12, and Pseudomonas aeruginosa PAO1 (Gram negative). The antibacterial activities of the peptides were determined using the standard broth microdilution method (Wang et al. (2005) J. Biol. Chem., 280:5803-5811). In brief, the bacterial culture (90 μL) was treated with a series of peptide solutions (10 μL), each with two-fold dilution. After overnight incubation at 37° C., the microplate was read on a ChroMate® 4300 Microplate Reader at 630 nm (GMI, Ramsey, Minn.).
# For the initial screen, antimicrobial activities of these peptides against S. aureus and E. coli were evaluated using the standard broth microdilution protocol (Wang, G. (2008) J. Biol. Chem., 283:32637-43). […] Subsequently, the in vitro activity of these six peptides was evaluated against Bacillus subtilis and Pseudomonas aeruginosa (Table 6). […] While maculatin 1.3 is active against two Gram-positive but not two Gram-negative bacterial strains, DASamP1 is species-specific since it active only against S. aureus. The finding that ascaphin-8, […], and piscidin 1 are wide-spectrum AMPs agrees with the literature (Apponyi et al. (2004) Peptides 25:1035-1054; Conlon et al. (2004) Biochem. Biophys. Res. Commun., 320:170-175; Silphaduang et al. (2001) Nature 414:268-269; Souza et al. (2005) J. Immunol., 186:6585-6596). For lycotoxin I, it was previously found to active against Gram-negative E. coli and yeast (Yan et al. (1998) J. Biol. Chem., 273:2059-2066).
# (§1) The antibacterial activities of the peptides were determined using the standard broth microdilution method (Mishra et al. (2012) J. Am. Chem. Soc., 134:12426-12429; Wang et al. (2005) Biol. Chem., 280:5803-5811). Briefly, the bacterial culture was treated with a series of peptide solutions, each with two-fold dilution. After overnight incubation at 37° C., the microplate was read on a ChroMate® 4300 Microplate Reader at 630 nm (GMI, Ramsey, Minn.).
# [2] = human, hemolysis, at 160 μM, human red blood cells
# Experimental: (§2) Peptide hemolysis was assayed using an established protocol (Malmsten et al. (2011) PLoS One 6:e16400). In brief, fresh blood, obtained from the UNMC Blood Bank, was washed three times with PBS buffer and made into a 5% solution. To 90 μL of this solution, 10 μL of a peptide solution was added and incubated at 37° C. for one hour. After centrifugation at 13,000 rpm, aliquots of the supernatant were transferred to a fresh 96 well microplate. The absorbance of the solutions was measured at 545 nm to detect the amount of hemoglobin released. The percent lysis was calculated by assuming 100% release when treated with 2% Triton X-100 and no lysis (0%) when treated with PBS buffer. HL50 was the peptide concentration that caused 50% lysis of human erythrocytes. The cell selectivity (CS) indexes were calculated as the ratio of HL50 to the MIC of the peptide against S. aureus USA300.
# (§3) The hemolytic effects of the six peptides were also compared on human red blood cells (hRBC) using an established protocol (Malmsten et al. (2011) PLoS One 6:e16400). […] A high TI indicates good cell selectivity.
# (§4) Peptide hemolysis was assayed using an established protocol (Menousek et al. (2012) Int. J. Antimicrob. Agents 39:402-406; Malmsten et al. (2011) PLoS One 6:e16400). Briefly, blood cells were washed three times with phosphate-buffered saline (PBS) and were diluted to a 5% solution. Following peptide treatment, incubation at 37° C. for 1 hour and centrifugation at 13,000 rpm, aliquots of the supernatant were transferred to a fresh 96-well microplate. To assess peptide cytotoxicity, the amount of hemoglobin released was measured at 545 nm. Percent lysis was calculated by assuming 100% release when human blood cells were treated with 2% Triton X-100 and 0% release when they were incubated with PBS buffer.
# human erythrocytes = settings: for HL50 (μM), peptide concentration that causes 50% lysis of human erythrocytes: Table 10
# Experimental: as §2, §3, §4
# E. faecium ATCC51559 = type: cell-based, Enterococcus faecium
# Experimental: as §1
# A. baumannii B2367-12 = type: cell-based, Acinetobacter baumanii
# Experimental: as §1
# E. cloacae B2366-12 = type: cell-based
# Experimental: as §1
# [3] = tested on: methicillin-resistant Staphylococcus aureus USA300 LAC; settings: for MIC (μM) SA: S. aureus USA300 LAC, Table 10
# Experimental: This was done by modifying the standard microdilution antimicrobial assays (Wang, G. (2008) J. Biol. Chem., 283:32637-32643). Specifically, the bacterial wells with a high peptide concentration (e.g. 100 μM) are duplicated (e.g., two for antimicrobial assays and two for protease stability assays). As an illustration, chymotrypsin was applied to the duplicated wells at a peptide:protease molar ratio of 25:1.
# Escherichia coli K12 = settings: Table 8
Structure (SMILES),MIC (μM) PA [1] [µM],hemolysis at 160 µM [2] [%],"HL50 (μM), peptide concentration that causes 50% lysis of human erythrocytes (human erythrocytes) [µM]","hemolysis (human erythrocytes; human, 160 µM) [%]",MIC (μM) EF (E. faecium ATCC51559; E. faecium ATCC51559) [µM],MIC (μM) AB (A. baumannii B2367-12) [µM],MIC (μM) EC (E. cloacae B2366-12; E. cloacae B2366-12) [µM],MIC (μM) SA [3] [µM],S. aureus USA 300 MIC ([3]; Table 8) [µM],E. coli K12 MIC (Escherichia coli K12) [µM],MIC (μM) EF (E. faecium ATCC51559; ATCC51559) [µM],MIC (μM) EC (E. cloacae B2366-12; B2366-12) [µM]
"CC(C)C[C@H](NC(=O)[C@H](CC(N)=O)NC(=O)[C@H](CCCNC(=N)N)NC(=O)[C@@H](CC(C)C)NC(=O)[C@H](Cc1ccccc1)NC(=O)[C@H](CC(=O)O)NC(=O)[C@H](CCCCN)NC(=O)[C@@H](CC(C)C)NC(=O)[C@H](CCCNC(=N)N)NC(=O)[C@H](CCC(N)=O)NC(=O)[C@@H](NC(=O)[C@@H](CC(C)C)NC(=O)[C@H](CCCNC(=N)N)NC(=O)[C@H](CCCCN)NC(=O)[C@H](Cc1ccc(-c2ccccc2)cc1)NC(=O)CN)C(C)C)C(=O)N[C@H](C(N)=O)C(C)C [C128A, GX1KRLVQRLKDX2LRNLV-amide] (H-G[Bip]KR[dL]VQR[dL]KDF[dL]RNLV-NH2)",12.5,3 to 5,>900,<5,12.5,3.1,12.5,12.5,40,5,–,–
"CC(C)C[C@H](NC(=O)[C@H](CC(N)=O)NC(=O)[C@H](CCCNC(=N)N)NC(=O)[C@@H](CC(C)C)NC(=O)[C@H](Cc1ccc2ccccc2c1)NC(=O)[C@H](CC(=O)O)NC(=O)[C@H](CCCCN)NC(=O)[C@@H](CC(C)C)NC(=O)[C@H](CCCNC(=N)N)NC(=O)[C@H](CCC(N)=O)NC(=O)[C@@H](NC(=O)[C@@H](CC(C)C)NC(=O)[C@H](CCCNC(=N)N)NC(=O)[C@H](CCCCN)NC(=O)[C@H](Cc1ccc(C(F)(F)F)cc1)NC(=O)CN)C(C)C)C(=O)N[C@H](C(N)=O)C(C)C [17mF-Naph, GX1KRLVQRLKDX2LRNLV] (H-G[Phe(4-CF3)]KR[dL]VQR[dL]KD[2Nal][dL]RNLV-NH2)",6.2 to 12.5,–,500,–,–,3.1,–,6.2,–,–,3.1,6.2
"CC(C)C[C@H](NC(=O)[C@H](CC(N)=O)NC(=O)[C@H](CCCNC(=N)N)NC(=O)[C@@H](CC(C)C)NC(=O)[C@H](Cc1ccc2ccccc2c1)NC(=O)[C@H](CC(=O)O)NC(=O)[C@H](CCCCN)NC(=O)[C@@H](CC(C)C)NC(=O)[C@H](CCCNC(=N)N)NC(=O)[C@H](CCC(N)=O)NC(=O)[C@@H](NC(=O)[C@@H](CC(C)C)NC(=O)[C@H](CCCNC(=N)N)NC(=O)[C@H](CCCCN)NC(=O)[C@H](Cc1ccccc1)NC(=O)CN)C(C)C)C(=O)N[C@H](C(N)=O)C(C)C [17F-Naph, GX1KRLVQRLKDX2LRNLV] (H-GFKR[dL]VQR[dL]KD[2Nal][dL]RNLV-NH2)",12.5,–,>900,–,–,3.1,12.5,25,–,–,3.1,–
"CC(C)C[C@H](NC(=O)[C@H](CC(N)=O)NC(=O)[C@H](CCCNC(=N)N)NC(=O)[C@@H](CC(C)C)NC(=O)[C@H](Cc1ccc(C(F)(F)F)cc1)NC(=O)[C@H](CC(=O)O)NC(=O)[C@H](CCCCN)NC(=O)[C@@H](CC(C)C)NC(=O)[C@H](CCCNC(=N)N)NC(=O)[C@H](CCC(N)=O)NC(=O)[C@@H](NC(=O)[C@@H](CC(C)C)NC(=O)[C@H](CCCNC(=N)N)NC(=O)[C@H](CCCCN)NC(=O)[C@H](Cc1ccc2ccccc2c1)NC(=O)CN)C(C)C)C(=O)N[C@H](C(N)=O)C(C)C [17Naph-mF, GX1KRLVQRLKDX2LRNLV] (H-G[2Nal]KR[dL]VQR[dL]KD[Phe(4-CF3)][dL]RNLV-NH2)",6.2 to 12.5,–,950,–,–,3.1,6.2 to 12.5,6.2,–,–,3.1,–
